Source: paper PMC7582705, “Structure-Based Discovery of Novel Chemical Classes of Autotaxin Inhibitors” (International Journal of Molecular Sciences, 2020)

Columns and labels:
[1] = biological target: T1, ATX (Homo sapiens, UniProt Q13822); assay: IC50 Eleanna (Table S2, method not described); assay type: biochemical; details: Table S2; read-out: IC50 Eleanna
[2] = biological target: T1, ATX; assay: Amplex Red Lyso-phospholipase D assay, human ATX; assay type: biochemical; parameters: purchased Sino Biological; details: for IC50: Table S2, Sino hATX 2nM; for inhibition at 30 µM: read-out: %inhibition at 30uM
Experimental: All compounds proposed were assessed for their ATX inhibitory activity in vitro using the Amplex Red assay. The Amplex Red Lyso-phospholipase D assay is a fluorometry-based assay providing a sensitive method for measuring Lyso-phospholipase D (ATX) activity in vitro. In this enzyme-coupled assay, ATX activity is monitored indirectly using 10-acetyl-3,7-dihydrophenoxazine (Amplex Red reagent), a sensitive fluorogenic probe for H2O2. ATX initially cleaves the Lysophosphatidylcholine (LPC) substrate to yield choline and Lysophosphatidic acid (LPA), while choline gets subsequently oxidized by choline oxidase to betaine and H2O2. Lastly, H2O2, in the presence of horseradish peroxidase (HRP), reacts with Amplex Red reagent in a 1:1 stoichiometry to generate the highly fluorescent product resorufin.
The inhibition assay was performed as previously described with some modifications in order to accommodate the newly-discovered lag phase in ATX kinetics. To this end, and in order to provide adequate time to the hydrolysis of LPC by ATX, we added a 30min incubation period between ATX, inhibitors and LPC. Briefly, 2 μL of different concentrations of inhibitors diluted in DMSO (Sigma-Aldrich, St. Louis, MO, USA) were incubated with 50 µL of ATX 8 nM (human or mouse ATX from Sino Biological), and 48 µL reaction buffer (50 mM Tris-Cl pH 8.0 from Thermo Fisher Scientific, Waltham, MA, USA and 5 mM CaCl2 from Honeywell-Fluka, Charlotte, NC, USA) in a black 96-well microplate for 15 min at 37 °C. Thence, another 50 µL of reaction buffer with 200 μM LPC substrate 16:0 (Avanti Polar Lipids Inc, Alabaster, AL, USA) ([…]) was added to the reaction mixture and incubated for 30 min at 37 °C in order for ATX to convert LPC to LPA and choline. Finally, 50 µL of working solution containing 200 μM Amplex Red (Invitrogen, Carlsbad, CA, USA), 4 U/mL HRP (Sigma-Aldrich, St. Louis, MO, USA), 0.4 U/mL choline oxidase (Sigma-Aldrich, St. Louis, MO, USA) in 50 mM Tris-HCl pH 8.0 and 5 mM CaCl2 was added to measure the produced choline. The reaction was monitored at 37 °C in a fluorescence plate reader using excitation at 530 nm and reading at 590 nm, every 5 min for 30 min. The velocity of the reaction and the remaining activity of ATX were calculated at the linear phase of the reaction and dose-response inhibition graphs were plotted with GraphPad Software (GraphPad Software, San Diego, CA, USA). […] In order to evaluate a possible effect of the compounds on the second (choline oxidase) and third (HRP) enzymes of the Amplex Red assay, we also performed the assay in the absence of ATX but in the presence of the compounds. Instead of ATX, we added choline chloride at a final concentration of 2 µM so as the second and third steps of the assay could proceed normally.

[3] = read-out: in vitro IC50 (Sino hATX 2nM)

Row | Compound | IC50 [1] [µM] | IC50 ([2]; in vitro IC50 (Sino hATX 2nM)) [µM] | inhibition at 30 µM ([2]; Table S2, at 30uM) [%] | %inhibition at 30uM ([2]; Table S2, at 30uM) [%] | IC50 [2, 3] [µM]
1 | O=C(Cc1cccc2ccccc12)Nc1c2c(nn1-c1ccccc1)C[S+]([O-])C2 (centres unmarked) [SC-7, 2-naphthalen-1-yl-N-(5-oxo-2-phenyl-4,6-dihydrothieno[3,4-c]pyrazol-3-yl)acetamide] | > 5 | > 30 |  |  | 
2 | COc1ccc(NC(=S)N2CCn3cccc3C2c2ccc(OC)c(OC)c2)cc1 (centres unmarked) [KM-31, 1-(3,4-dimethoxyphenyl)-N-(4-methoxyphenyl)-3,4-dihydro-1H-pyrrolo[1,2-a]pyrazine-2-carbothioamide] | 4.5 | > 30 |  |  | 
3 | Cc1ccccc1-n1nc2c(c1NC(=O)c1ccc3ccccc3c1)CS(=O)(=O)C2 [SC-47, N-[2-(2-methylphenyl)-5,5-dioxo-4,6-dihydrothieno[3,4-c]pyrazol-3-yl]naphthalene-2-carboxamide] | 3.4 | > 30 | 38.6 |  | 
4 | Cc1ccc(-n2nc3c(c2NC(=O)c2ccc4ccccc4c2)C[S+]([O-])C3)cc1 (centres unmarked) [SC-27, N-[2-(4-methylphenyl)-5-oxo-4,6-dihydrothieno[3,4-c]pyrazol-3-yl]naphthalene-2-carboxamide] | > 5 | > 30 |  |  | 
5 | CCOC(=O)c1c(-c2ccccc2)oc2ccc(O)c(CN3CCC(C)CC3)c12 [KM-39, 3-ethoxycarbonyl-4-[(4-methylpiperidin-1-ium-1-yl)methyl]-2-phenyl-1-benzofuran-5-olate] | 5 | > 30 |  |  | 
6 | O=C(Nc1c2c(nn1-c1ccc(F)cc1)C[S+]([O-])C2)c1ccc2ccccc2c1 (centres unmarked) [SC-24, N-[2-(4-fluorophenyl)-5-oxo-4,6-dihydrothieno[3,4-c]pyrazol-3-yl]naphthalene-2-carboxamide] | 4 | > 30 | 18.2 |  | 
7 | COc1ccc(Cn2c(C(=O)O)c(CNC3CCCCC3)c3ccc(C)cc32)cc1 [KM-29, 3-[(cyclohexylamino)methyl]-1-[(4-methoxyphenyl)methyl]-6-methylindole-2-carboxylic acid] | 1.2 | > 30 | 3.21 |  | 
8 | O=C(Nc1c2c(nn1-c1ccc(F)cc1)C[S+]([O-])C2)c1cccc2ccccc12 (centres unmarked) [SC-14, N-[2-(4-fluorophenyl)-5-oxo-4,6-dihydrothieno[3,4-c]pyrazol-3-yl]naphthalene-1-carboxamide] | > 5 | > 30 | 9.6 |  | 
9 | Cc1cc(C)cc(NC(=O)CSc2cn(CC(=O)N3CCCC3)c3ccccc23)c1 [KM-50, N-(3,5-dimethylphenyl)-2-[1-(2-oxo-2-pyrrolidin-1-ylethyl)indol-3-yl]sulfanylacetamide] | 5 | > 30 |  |  | 
10 | CCc1ccccc1NC(=O)C1c2ccccc2C(=O)N(CCOC)C1c1cccs1 (centres unmarked) [KM-4, N-(2-ethylphenyl)-2-(2-methoxyethyl)-1-oxo-3-thiophen-2-yl-3,4-dihydroisoquinoline-4-carboxamide] | > 5 | > 30 |  |  | 
11 | CCc1ccc([C@H](NC(=O)CCN2C(=O)[C@@H](C)Oc3ccccc32)c2cccs2)cc1 [KM-36, N-[(S)-(4-ethylphenyl)-thiophen-2-ylmethyl]-3-[(2R)-2-methyl-3-oxo-1,4-benzoxazin-4-yl]propanamide] | 5 | > 30 | 9.71 |  | 
12 | O=C(Cn1cnc2ccsc2c1=O)c1c(-c2ccccc2)[nH]c2ccccc12 [SC-34, 3-[2-oxo-2-(2-phenyl-1H-indol-3-yl)ethyl]thieno[3,2-d]pyrimidin-4-one] | 5 | > 30 | 16 |  | 
13 | COc1ccc(C2SCCN2S(=O)(=O)c2ccc3c(c2)Cc2ccccc2-3)cc1 (centres unmarked) [SC-8, 3-(9H-fluoren-2-ylsulfonyl)-2-(4-methoxyphenyl)-1,3-thiazolidine] | > 5 | > 30 |  |  | 
14 | O=C(Nc1c2c(nn1-c1ccccc1)CS(=O)(=O)C2)c1cccc2ccccc12 [SC-6, N-(5,5-dioxo-2-phenyl-4,6-dihydrothieno[3,4-c]pyrazol-3-yl)naphthalene-1-carboxamide] | > 5 | > 30 |  |  | 
15 | CN1C(=O)C(=NNC(=O)c2cc(-c3cccs3)nc3ccccc23)c2ccccc21 [SC-40, N-[(1-methyl-2-oxoindol-3-ylidene)amino]-2-thiophen-2-ylquinoline-4-carboxamide] | > 5 | > 30 |  |  | 
16 | O=C1NC(=O)C(=Cc2cn(Cc3ccc4ccccc4c3)c3ccccc23)S1 [SC-45, 5-[[1-(naphthalen-2-ylmethyl)indol-3-yl]methylidene]-1,3-thiazolidine-2,4-dione] | > 5 | > 30 |  |  | 
17 | COc1ccc2c(CNC3CCC(C)CC3)c(C(=O)O)n(Cc3ccccc3)c2c1 (centres unmarked) [KM-47, 1-benzyl-6-methoxy-3-[[(4-methylcyclohexyl)amino]methyl]indole-2-carboxylic acid] | > 5 | > 30 |  |  | 
18 | Cc1ccc(-n2nc3c(c2NC(=O)c2cccc4ccccc24)C[S+]([O-])C3)cc1 (centres unmarked) [SC-16, N-[2-(4-methylphenyl)-5-oxo-4,6-dihydrothieno[3,4-c]pyrazol-3-yl]naphthalene-1-carboxamide] | > 5 | > 30 | 13.6 |  | 
19 | Cc1ncc(-c2ccc(NS(=O)(=O)c3ccc4c5c(cccc35)CC4)cc2)o1 [SC-37, N-[4-(2-methyl-1,3-oxazol-5-yl)phenyl]-1,2-dihydroacenaphthylene-5-sulfonamide] | > 5 | > 30 |  |  | 
20 | CCOC(=O)c1c(-c2ccccc2)oc2ccc(O)c(CN3CCC(C)CC3)c12.Cl [KM-40, ethyl 5-hydroxy-4-[(4-methylpiperidin-1-yl)methyl]-2-phenyl-1-benzofuran-3-carboxylate;hydrochloride] |  |  |  | 41.295 | > 30
21 | Cc1ccc(S(=O)(=O)n2cc(C=C3C(=O)Nc4ccccc43)c3ccccc32)cc1 [SC-18, 3-[[1-(4-methylphenyl)sulfonylindol-3-yl]methylidene]-1H-indol-2-one] | 5 | 30 | 55.3 |  | 
22 | O=C1Cc2cc(C(=O)CSc3nc4ccccc4n3-c3ccccc3)ccc2N1 [SC-12, 5-[2-(1-phenylbenzimidazol-2-yl)sulfanylacetyl]-1,3-dihydroindol-2-one] | 0.9 | > 30 |  |  | 
23 | Cc1nc(-c2ccc(NS(=O)(=O)c3ccc4c5c(cccc35)CC4)cc2)cs1 [SC-30, N-[4-(2-methyl-1,3-thiazol-4-yl)phenyl]-1,2-dihydroacenaphthylene-5-sulfonamide] | > 5 | > 30 |  |  | 
24 | COc1cc([C@H]2c3cccn3CCN2C(=S)Nc2ccccc2C)cc(OC)c1OC [KM-27, N-(o-tolyl)-1-(3,4,5-trimethoxyphenyl)-3,4-dihydro, (1S)-N-(2-methylphenyl)-1-(3,4,5-trimethoxyphenyl)-3,4-dihydro-1H-pyrrolo[1,2-a]pyrazine-2-carbothioamide] | 1 |  |  |  | > 30
25 | COCCCN1C(=O)c2[nH]nc(-c3ccccc3)c2C1c1ccc(C(C)C)cc1 (centres unmarked) [KM-2, 5-(3-methoxypropyl)-3-phenyl-4-(4-propan-2-ylphenyl)-1,4-dihydropyrrolo[3,4-c]pyrazol-6-one] | > 5 | > 30 |  |  | 
26 | Cc1ccc(-n2nc3c(c2NC(=O)c2cccc4ccccc24)CS(=O)(=O)C3)cc1 [SC-43, N-[2-(4-methylphenyl)-5,5-dioxo-4,6-dihydrothieno[3,4-c]pyrazol-3-yl]naphthalene-1-carboxamide] | > 5 | > 30 |  |  | 
27 | O=C1c2ccccc2-c2ccc(C(=O)N3CCN(C(=O)c4cccs4)CC3)cc21 [SC-42, 2-[4-(thiophene-2-carbonyl)piperazine-1-carbonyl]fluoren-9-one] | 4.53 | > 30 |  |  | 
28 | CCOC(=O)c1c(CN2CCCCC2)n(-c2ccccc2)c2cc(Br)c(OC)cc12 [KM-6, ethyl 6-bromo-5-methoxy-1-phenyl-2-(piperidin-1-ylmethyl)indole-3-carboxylate] | 4.5 | > 30 | 20.6 |  | 
